Test results published in patent publication US11053204B2, “Pyrimidinyloxy benzene derivatives as herbicides” (FMC Corporation, priority 2015, dated 2021).

Legend:
Type in all cases: in vivo
[1] = tested on: giant foxtail (Setaria faberii); experiment: Test A postemergence, visual injury rating; conditions: Setaria faberi, post-emergence, 240 h, 0 is no effect, 100 is complete control, read-out: Foxtail, Giant plant response rating (0 to 100 scale)
Method in brief: (§1)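 Greenhouse pot test, loam/sand soil. Formulation: non-phytotoxic solvent mix plus surfactant. Pre: directed spray onto soil after sowing. Post: plants at 1–2 leaf, 2–10 cm. Rated visually vs untreated controls at ~10 d, 0 (no effect) to 100 (complete control).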

[2] = tested on: wheat (Triticum aestivum); experiment: Test A postemergence, visual injury rating; conditions: Triticum aestivum, post-emergence, 240 h, 0 is no effect, 100 is complete control, read-out: Wheat plant response rating (0 to 100 scale)
Method in brief: as §1

[3] = tested on: Italian ryegrass (Lolium multiflorum); experiment: Test A postemergence, visual injury rating; conditions: Lolium multiflorum, post-emergence, 240 h, 0 is no effect, 100 is complete control, read-out: Ryegrass, Italian plant response rating (0 to 100 scale)
Method in brief: as §1

[4] = tested on: kochia (Kochia scoparia); experiment: Test A postemergence, visual injury rating; conditions: Bassia scoparia, post-emergence, 240 h, 0 is no effect, 100 is complete control, read-out: Kochia plant response rating (0 to 100 scale)
Method in brief: as §1

[5] = tested on: pigweed (Amaranthus retroflexus); experiment: Test A postemergence, visual injury rating; conditions: Amaranthus retroflexus, post-emergence, 240 h, 0 is no effect, 100 is complete control, read-out: Pigweed plant response rating (0 to 100 scale)
Method in brief: as §1

[6] = tested on: galium (catchweed bedstraw, Galium aparine); experiment: Test A postemergence, visual injury rating; conditions: Galium, post-emergence, 240 h, 0 is no effect, 100 is complete control, read-out: Galium plant response rating (0 to 100 scale)
Method in brief: as §1

[7] = tested on: blackgrass (Alopecurus myosuroides); experiment: Test A postemergence, visual injury rating; conditions: Alopecurus myosuroides, post-emergence, 240 h, 0 is no effect, 100 is complete control, read-out: Blackgrass plant response rating (0 to 100 scale)
Method in brief: as §1

[8] = tested on: ragweed (common ragweed, Ambrosia elatior); experiment: Test A postemergence, visual injury rating; conditions: Ambrosia artemisiifolia, post-emergence, 240 h, 0 is no effect, 100 is complete control, read-out: Ragweed plant response rating (0 to 100 scale)
Method in brief: as §1

[9] = tested on: barnyardgrass (Echinochloa crus-galli); experiment: Test A postemergence, visual injury rating; conditions: Echinochloa crus-galli, post-emergence, 240 h, 0 is no effect, 100 is complete control, read-out: Barnyardgrass plant response rating (0 to 100 scale)
Method in brief: as §1

[10] = tested on: corn (Zea mays); experiment: Test A postemergence, visual injury rating; conditions: Zea mays, post-emergence, 240 h, 0 is no effect, 100 is complete control, read-out: Corn plant response rating (0 to 100 scale)
Method in brief: as §1

[11] = tested on: waterhemp (common waterhemp, Amaranthus rudis); experiment: Test C postemergence, plant response rating; conditions: for Plant response rating, Waterhemp: scale 0 to 100; for Waterhemp plant response rating: scale 0 to 100 (0 no effect, 100 complete control)
From the text: (§2) Seeds of plant species selected from blackgrass (Alopecurus myosuroides), ryegrass, Italian (Italian ryegrass, Lolium multiflorum), wheat (winter wheat, Triticum aestivum), galium (catchweed bedstraw, Galium aparine), corn (Zea mays), crabgrass, large (large crabgrass, Digitaria sanguinalis), foxtail, giant (giant foxtail, Setaria faberii), johnsongrass (Sorghum halepense), lambsquarters (Chenopodium album), morningglory (Ipomoea coccinea), nutsedge, yellow (yellow nutsedge, Cyperus esculentus), pigweed (Amaranthus retroflexus), ragweed (common ragweed, Ambrosia elatior), soybean (Glycine max), barnyardgrass (Echinochloa crus-galli), oilseed rape (Brassica napus), pigweed, palmer (palmer pigweed, Amaranthus palmeri), waterhemp (common waterhemp, Amaranthus rudis), velvetleaf (Abutilon theophrasti), kochia (Kochia scoparia), surinam grass (Brachiaria decumbens), nightshade (eastern black nightshade, Solanum ptycanthum), wild poinsettia (Euphorbia heterophylla), windgrass (Apera spica-venti), and oat, wild (wild oat Avena fatua), were planted into a blend of loam soil and sand or a silt loam soil and treated preemergence with test chemicals formulated in a non-phytotoxic solvent mixture which included a surfactant.
(§3) At the same time, plants selected from these crop and weed species and also chickweed (common chickweed, Stellaria media), buckwheat, wild (wild buckwheat, Polygonum convolvulus), wild mustard (Sinapis arvensis), field poppy (Papaver rhoeas), field violet (Viola arvensis), geranium, cutleaf (cutleaf geranium, Geranium dissectum), Canada thistle (Cirsium arvense), and speedwell (bird's-eye speedwell, Veronica persica), were planted in pots containing Sunshine Redi-Earth® planting medium comprising spaghnum peat moss, vermiculite, starter nutrients and dolomitic limestone and treated with postemergence applications of test chemicals formulated in the same manner. Plants ranged in height from 2 to 18 cm (1- to 4-leaf stage) for postemergence treatments. Treated plants and controls were maintained in a greenhouse for 13 to 15 d, after which time all species were compared to controls and visually evaluated. Plant response ratings, summarized in Table C, are based on a scale of 0 to 100 where 0 is no effect and 100 is complete control. A dash (-) response means no test result.

[12] = tested on: chickweed (common chickweed, Stellaria media); experiment: Test C postemergence, plant response rating; conditions: Stellaria media, post-emergence
From the text: as §2, §3

[13] = tested on: foxtail, giant (giant foxtail, Setaria faberii); experiment: Test C postemergence, plant response rating; conditions: Setaria faberi, post-emergence
From the text: as §2, §3

[14] = tested on: lambsquarters (Chenopodium album); experiment: Test C postemergence, plant response rating; conditions: Chenopodium album, post-emergence
From the text: as §2, §3

[15] = tested on: ryegrass, Italian (Italian ryegrass, Lolium multiflorum); experiment: Test C postemergence, plant response rating; conditions: Lolium multiflorum, post-emergence
From the text: as §2, §3

[16] = tested on: soybean (Glycine max); experiment: Test C postemergence, plant response rating; conditions: Glycine max, post-emergence
From the text: as §2, §3

[17] = tested on: oat, wild (wild oat Avena fatua); experiment: Test C postemergence, plant response rating; conditions: Avena fatua, post-emergence
From the text: as §2, §3

[18] = tested on: velvetleaf (Abutilon theophrasti); experiment: Test C postemergence, plant response rating; conditions: Abutilon theophrasti, post-emergence
From the text: as §2, §3

[19] = tested on: ragweed (common ragweed, Ambrosia elatior); experiment: Test C postemergence, plant response rating; conditions: Ambrosia artemisiifolia, post-emergence
From the text: as §2, §3

[20] = 62 g ai/ha, scale 0 to 100 (0 no effect, 100 complete control)
[21] = 125 g ai/ha, scale 0 to 100 (0 no effect, 100 complete control)

Compound: O=C(OCCCC(F)(F)F)c1c(Br)cccc1Oc1ncc(Cl)cn1 [Compound 20, 4,4,4-trifluorobutyl 2-bromo-6-[(5-chloro-2-pyrimidinyl)oxy]benzoate]
- pest or weed control at 125 g/ha ([1]; 125 g ai/ha): 50%
- pest or weed control at 500 g/ha ([1]; 500 g ai/ha): 100%
- plant injury at 125 g/ha ([2]; 125 g ai/ha): 0%
- plant injury at 500 g/ha ([2]; 500 g ai/ha): 20%
- pest or weed control at 125 g/ha ([3]; 125 g ai/ha): 0%
- pest or weed control at 500 g/ha ([3]; 500 g ai/ha): 40%
- pest or weed control at 125 g/ha ([4]; 125 g ai/ha): 90%
- pest or weed control at 500 g/ha ([4]; 500 g ai/ha): 100%
- pest or weed control at 125 g/ha ([5]; 125 g ai/ha): 100%
- pest or weed control at 500 g/ha ([5]; 500 g ai/ha): 100%
- pest or weed control at 125 g/ha ([6]; 125 g ai/ha): 10%
- pest or weed control at 500 g/ha ([6]; 500 g ai/ha): 90%
- pest or weed control at 125 g/ha ([7]; 125 g ai/ha): 30%
- pest or weed control at 500 g/ha ([7]; 500 g ai/ha): 50%
- pest or weed control at 125 g/ha ([8]; 125 g ai/ha): 0%
- pest or weed control at 500 g/ha ([8]; 500 g ai/ha): 40%
- pest or weed control at 125 g/ha ([9]; 125 g ai/ha): 30%
- pest or weed control at 500 g/ha ([9]; 500 g ai/ha): 100%
- plant injury at 125 g/ha ([10]; 125 g ai/ha): 30%
- plant injury at 500 g/ha ([10]; 500 g ai/ha): 40%
- Plant response rating, Waterhemp ([11]; 16 g ai/ha): 75
- Plant response rating, Waterhemp ([11]; 31 g ai/ha): 95
- Waterhemp plant response rating ([11]; 62 g ai/ha): 90
- Waterhemp plant response rating ([11]; 125 g ai/ha): 98
- pest or weed control at 16 g/ha ([12]; 16 g ai/ha, scale 0 to 100): 60%
- pest or weed control at 31 g/ha ([12]; 31 g ai/ha, scale 0 to 100): 60%
- pest or weed control at 62 g/ha [12, 20]: 65%
- pest or weed control at 125 g/ha [12, 21]: 75%
- pest or weed control at 16 g/ha ([13]; 16 g ai/ha, scale 0 to 100): 10%
- pest or weed control at 31 g/ha ([13]; 31 g ai/ha, scale 0 to 100): 10%
- pest or weed control at 62 g/ha [13, 20]: 10%
- pest or weed control at 125 g/ha [13, 21]: 25%
- pest or weed control at 16 g/ha ([14]; 16 g ai/ha, scale 0 to 100): 65%
- pest or weed control at 31 g/ha ([14]; 31 g ai/ha, scale 0 to 100): 80%
- pest or weed control at 62 g/ha [14, 20]: 70%
- pest or weed control at 125 g/ha [14, 21]: 85%
- pest or weed control at 16 g/ha ([15]; 16 g ai/ha, scale 0 to 100): 0%
- pest or weed control at 31 g/ha ([15]; 31 g ai/ha, scale 0 to 100): 5%
- pest or weed control at 62 g/ha [15, 20]: 10%
- pest or weed control at 125 g/ha [15, 21]: 5%
- plant injury at 16 g/ha ([16]; 16 g ai/ha, scale 0 to 100): 25%
- plant injury at 31 g/ha ([16]; 31 g ai/ha, scale 0 to 100): 65%
- plant injury at 62 g/ha [16, 20]: 55%
- plant injury at 125 g/ha [16, 21]: 60%
- pest or weed control at 16 g/ha ([17]; 16 g ai/ha, scale 0 to 100): 0%
- pest or weed control at 31 g/ha ([17]; 31 g ai/ha, scale 0 to 100): 0%
- pest or weed control at 62 g/ha [17, 20]: 5%
- pest or weed control at 125 g/ha [17, 21]: 5%
- pest or weed control at 16 g/ha ([18]; 16 g ai/ha, scale 0 to 100): 20%
- pest or weed control at 31 g/ha ([18]; 31 g ai/ha, scale 0 to 100): 50%
- pest or weed control at 62 g/ha ([18]; 62 g ai/ha, scale 0 to 100 (0 no effect, 100 complete control), read-out: Velvetleaf plant response rating): 40%
- pest or weed control at 125 g/ha [18, 21]: 70%
- pest or weed control at 16 g/ha ([19]; 16 g ai/ha, scale 0 to 100): 30%
- pest or weed control at 31 g/ha ([19]; 31 g ai/ha, scale 0 to 100): 50%
- pest or weed control at 62 g/ha [19, 20]: 55%
- pest or weed control at 125 g/ha [19, 21]: 60%
